Measured values: patent publication US10946019B2, “Nurr1:RXR activating compounds for simultaneous treatment of symptoms and pathology of Parkinson's disease” (priority 2015, dated 2021)

Assays:
[1] = molecular target: Nurr1GAL4:RXRαVP16 heterodimer chimeras (Homo sapiens (Human), UniProt P19793); test: GAL4/VP16 chimera specificity luciferase assay in SHSY-5Y; type: cell-based; conditions: GAL4-responsive luciferase reporter
Experimental: (§1) Compound 3 specifically activates Nurr1:RXRα heterodimers over other RXR-containing transcription co-activator complexes. Specificity assays fusing DNA sequences of the gal4 DNA binding domain to the nuclear receptor Ligand-Binding-Domain (LDB) and to vp16 were performed as follows: Human SHSY-5Y cells were cotransfected with 20 ng of MH100-tk -luciferase, 10 ng of CMX-bgal, 20 ng of CMX-GAL4-RXRα-LBD and 20 ng of CMX-VP16-NR-LBD, where NR stands for either Nurr1, VDR, PPARγ. CMX-VP16-VDR-LBD and CMX-VP16-PPARγ-LBD were kindly provided by Dr Makishima ([…]). CMX-VP16-Nurr1-LBD was produced by cloning the Nurr1 LBD in the CMX-VP16 vector using KpnI. More specifically, Nurr1-LBD was isolated by PCR from a vector containing the Nurr1 cDNA using a set of primers flanking the Nurr1 LBD sequence and carrying at both sides the KpnI restriction sites, namely Nurr1 Forward […] (SEQ ID NO: 1) and Nurr1 Reverse […] (SEQ ID NO: 2). To exclude the possibility that compound 3 might transactivate RXRγ:Nurr1 heterodimers, CMX-GAL4-RXRγ-LBD was constructed by cloning the RXRγ LBD that was isolated by PCR from a vector containing the RXRγ cDNA (RIKEN, Tokyo, Japan) using the following Forward and Reverse primers carrying KpnI and NheI restriction sites, respectively, namely RXRγ Forward […] (SEQ ID NO: 3) and RXRγ LBD Reverse […] (SEQ ID NO: 4). 17 hours after transfection the compound was added to the medium at the corresponding concentrations and left for another 12 hours. Then the cells were assayed for luciferase activity normalized to galactosidase activity.
(§2) To test off-target effects of compound 3 on complexes aside from Nurr1:RXRα heterodimers, we fused the ligand binding domains of Nurr1, RXRα and a variety of related nuclear receptors to GAL4 DNA-binding domain to create chimeric proteins, while the ligand-binding domain of RXRα was also fused with VP16. These molecular chimeras were co-transfected in pairs with the RXRα:VP16 along with a GAL4-responsive luciferase reporter in SHSY-5Y, which were stimulated with compound 3. […] The above experiments indicate the high degree of selectivity of compound 3 and point to its neuroprotective potential.

[2] = molecular target: RXRαGAL4 homodimer chimeras (Homo sapiens (Human), UniProt P19793); test: as above; type: cell-based; conditions: GAL4-responsive luciferase reporter
Sequence of RXRαGAL4 homodimer chimeras (P19793 whole entry, looked up, change not shown, the tested form may be a part): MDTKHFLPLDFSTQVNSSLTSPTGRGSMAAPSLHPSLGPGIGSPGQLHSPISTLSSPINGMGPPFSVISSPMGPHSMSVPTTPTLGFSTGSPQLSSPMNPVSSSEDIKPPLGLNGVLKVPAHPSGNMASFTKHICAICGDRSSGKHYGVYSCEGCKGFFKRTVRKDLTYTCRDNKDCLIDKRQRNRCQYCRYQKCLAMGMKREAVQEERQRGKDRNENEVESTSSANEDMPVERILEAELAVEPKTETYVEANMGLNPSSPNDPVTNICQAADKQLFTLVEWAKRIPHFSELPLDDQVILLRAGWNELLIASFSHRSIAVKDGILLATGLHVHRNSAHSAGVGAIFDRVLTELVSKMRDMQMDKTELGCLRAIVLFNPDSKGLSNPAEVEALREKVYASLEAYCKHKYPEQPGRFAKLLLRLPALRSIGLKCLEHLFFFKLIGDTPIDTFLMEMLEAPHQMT
Sequence of RXRαGAL4 homodimer chimeras (P19793 whole entry, looked up, change not shown, the tested form may be a part): as above
Experimental: as §1, §2

[3] = molecular target: RXRαVP16 heterodimer chimeras with PPARγGAL4 (Homo sapiens (Human), UniProt P19793); test: as above; type: cell-based; conditions: GAL4-responsive luciferase reporter
Sequence of RXRαVP16 heterodimer chimeras with PPARγGAL4 (P19793 whole entry, looked up, change not shown, the tested form may be a part): as above
Sequence of RXRαVP16 heterodimer chimeras with PPARγGAL4 (P37231 whole entry partner, looked up, the tested form may be a part): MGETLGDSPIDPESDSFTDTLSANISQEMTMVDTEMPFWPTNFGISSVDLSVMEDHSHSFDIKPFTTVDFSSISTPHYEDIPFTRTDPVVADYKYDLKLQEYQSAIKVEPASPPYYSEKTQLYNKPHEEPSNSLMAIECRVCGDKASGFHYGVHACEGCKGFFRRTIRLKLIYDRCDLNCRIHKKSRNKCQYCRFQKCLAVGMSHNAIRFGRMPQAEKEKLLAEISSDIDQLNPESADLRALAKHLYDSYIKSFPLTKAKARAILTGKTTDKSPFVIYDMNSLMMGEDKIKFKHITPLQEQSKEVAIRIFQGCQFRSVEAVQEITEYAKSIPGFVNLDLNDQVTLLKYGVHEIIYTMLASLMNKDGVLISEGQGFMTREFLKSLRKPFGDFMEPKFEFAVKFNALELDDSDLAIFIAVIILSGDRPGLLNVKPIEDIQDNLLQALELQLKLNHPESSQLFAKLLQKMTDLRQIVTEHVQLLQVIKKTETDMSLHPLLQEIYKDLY
Experimental: as §1, §2

[4] = molecular target: RXRαVP16 heterodimer chimeras with RXRγGAL4 (Homo sapiens (Human), UniProt P19793); test: as above; type: cell-based; conditions: GAL4-responsive luciferase reporter
Sequence of RXRαVP16 heterodimer chimeras with RXRγGAL4 (P19793 whole entry, looked up, change not shown, the tested form may be a part): as the sequence (P19793 whole entry, looked up, change not shown, the tested form may be a part) above
Sequence of RXRαVP16 heterodimer chimeras with RXRγGAL4 (P48443 whole entry partner, looked up, the tested form may be a part): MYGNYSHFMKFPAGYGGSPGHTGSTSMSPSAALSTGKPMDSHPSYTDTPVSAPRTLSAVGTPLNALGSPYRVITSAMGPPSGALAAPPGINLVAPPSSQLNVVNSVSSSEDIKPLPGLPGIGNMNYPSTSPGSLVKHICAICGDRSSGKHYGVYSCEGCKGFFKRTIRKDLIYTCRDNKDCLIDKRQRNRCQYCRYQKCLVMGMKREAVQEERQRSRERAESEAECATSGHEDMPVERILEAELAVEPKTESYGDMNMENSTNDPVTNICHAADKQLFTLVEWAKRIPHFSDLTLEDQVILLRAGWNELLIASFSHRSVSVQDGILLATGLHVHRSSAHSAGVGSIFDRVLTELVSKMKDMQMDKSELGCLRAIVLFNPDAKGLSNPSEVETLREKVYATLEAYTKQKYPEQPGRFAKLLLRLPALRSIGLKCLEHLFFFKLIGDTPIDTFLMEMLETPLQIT
Experimental: as §1, §2

[5] = molecular target: RXRαVP16 heterodimer chimeras with VDRGAL4 (Homo sapiens (Human), UniProt P19793); test: as above; type: cell-based; conditions: GAL4-responsive luciferase reporter
Sequence of RXRαVP16 heterodimer chimeras with VDRGAL4 (P19793 whole entry, looked up, change not shown, the tested form may be a part): as the sequence (P19793 whole entry, looked up, change not shown, the tested form may be a part) above
Sequence of RXRαVP16 heterodimer chimeras with VDRGAL4 (P11473 whole entry partner, looked up, the tested form may be a part): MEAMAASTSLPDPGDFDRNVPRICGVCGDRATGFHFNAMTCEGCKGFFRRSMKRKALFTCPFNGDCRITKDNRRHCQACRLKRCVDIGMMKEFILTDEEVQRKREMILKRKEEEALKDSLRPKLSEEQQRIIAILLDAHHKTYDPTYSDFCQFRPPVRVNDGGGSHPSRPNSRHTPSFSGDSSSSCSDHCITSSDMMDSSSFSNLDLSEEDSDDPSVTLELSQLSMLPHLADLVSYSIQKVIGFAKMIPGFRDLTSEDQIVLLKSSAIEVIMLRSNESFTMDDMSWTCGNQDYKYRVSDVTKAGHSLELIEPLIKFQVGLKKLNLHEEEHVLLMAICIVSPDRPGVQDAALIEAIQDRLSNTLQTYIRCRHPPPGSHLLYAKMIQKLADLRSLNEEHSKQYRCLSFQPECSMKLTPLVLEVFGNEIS
Experimental: as §1, §2

[6] = tested on: noradrenaline levels; test: Striatal noradrenaline levels by HPLC-ECD; type: in vivo, mouse; conditions: 4 hours
Experimental: 4 hours after dosing animals were killed by cervical dislocation, brains were removed, and the striata were dissected on ice. The samples were immediately frozen and stored at −80° C. until use. The tissues were processed for the analysis by high performance liquid chromatography (HPLC) with an electrochemical detector (ECD) (Emmanouil et al., 2006). The dissected tissues were weighed, homogenized, and deproteinized in 0.2 N perchloric acid solution containing 7.9 mM Na2S2O5 and 1.3 mM Na2EDTA. The homogenate was centrifuged at 37,000×g for 30 minutes, and the supernatant was stored at −80° C. until assayed. A reverse-phase ion-pair chromatography was used in all analyses, and the mobile phase consisted of an acetonitrile-50 mM phosphate buffer at pH 3.0, containing 5-octylsulfate sodium salt (300 mg/L) as the ion-pair reagent and (20 mg/L) Na2EDTA. Reference standards were prepared in 0.2 N perchloric acid solution containing 7.9 mM Na2S2O5 and 1.3 mM Na2EDTA. Samples were quantified by comparison of the areas under the peaks with those of reference standards using HPLC software (Chromatography Station for Windows™, Watrex International Inc., San Francisco, Calif.) (FIG. 3D).

[7] = tested on: C57/BL6 mice; test: Porsolt forced swim test after chronic mild stress; type: in vivo, mouse; conditions: CMS mice, 2×10 mg/kg IP spaced 2 hours apart, 4 hours after last injection
Experimental: The chronic mild stress (CMS) procedure was applied semi randomly to each mouse and consisted of a variety of unpredictable mild environmental, social and physical stressors, including confinement in a small tube (1 hours), an empty cage without sawdust (15 hours), water and food deprivation (15 hours), food restriction (approximately 50 mg of food pellets, 3 hours), cage tilted at 45° (1-3 hours), damp sawdust (approximately 200 ml of water per 100 g of sawdust, 3 hours), paired housing in damp sawdust (18 hours), reversal of the light/dark cycle, 2-hour light/dark succession every 30 minutes, as well as light (15-17 hours) and dark (4-6 hours). Compound 3 (2×10 mg/kg spaced 2 hours apart) or vehicle control (Ethanol:PG:Saline, 10:30:60), was administered IP to mice. 4 hours after the last injection, mice were evaluated in the Porsolt forced swim test. […] Recorded behaviors for “floating” (the mouse is completely still in the water, except for isolated movements to right itself) and “swimming” (movement of all four legs with body aligned horizontally in the water) were measured (in seconds) for each mouse.

[8] = tested on: C57BL/6 mice exposed to MPTP; test: Neuroprotection in the acute MPTP mouse model; type: in vivo
[9] = tested on: LRRK2-G2019S mutated DAergic neurons; test: Neurite phenotypes of PD patient LRRK2-G2019S iPSc-derived DAergic neurons; type: cell-based, human; conditions: 12.5 μM for 14 days
Experimental: To ascertain the translational therapeutic potential of compound 3, we tested whether human midbrain-specific iPSc-derived DAergic neurons, as indicated by positive staining and qPCR for the neuronal markers MAP2, TH, FoxA2, Lmx1 and En1, can be protected from MPP+ toxicity. Compound 3 was able to double the number of surviving neurons after MPP+ exposure within 24 hours, compared to vehicle (FIGS. 72J-72L). The surviving control neurons had fewer and retreating projections, indicating compromised function (FIG. 72K) while the neurons that had received compound 3 had retained a complex network of projections and contacts (FIG. 72L). In addition, we tested compound 3 in iPSc-derived DAergic neurons from a PD patient carrying the LRRK2-G2019S mutation.

Sequence of Nurr1GAL4:RXRαVP16 heterodimer chimeras (P19793 whole entry, looked up, change not shown, the tested form may be a part): as the sequence (P19793 whole entry, looked up, change not shown, the tested form may be a part) above
Sequence of Nurr1GAL4:RXRαVP16 heterodimer chimeras (P43354 whole entry partner, looked up, the tested form may be a part): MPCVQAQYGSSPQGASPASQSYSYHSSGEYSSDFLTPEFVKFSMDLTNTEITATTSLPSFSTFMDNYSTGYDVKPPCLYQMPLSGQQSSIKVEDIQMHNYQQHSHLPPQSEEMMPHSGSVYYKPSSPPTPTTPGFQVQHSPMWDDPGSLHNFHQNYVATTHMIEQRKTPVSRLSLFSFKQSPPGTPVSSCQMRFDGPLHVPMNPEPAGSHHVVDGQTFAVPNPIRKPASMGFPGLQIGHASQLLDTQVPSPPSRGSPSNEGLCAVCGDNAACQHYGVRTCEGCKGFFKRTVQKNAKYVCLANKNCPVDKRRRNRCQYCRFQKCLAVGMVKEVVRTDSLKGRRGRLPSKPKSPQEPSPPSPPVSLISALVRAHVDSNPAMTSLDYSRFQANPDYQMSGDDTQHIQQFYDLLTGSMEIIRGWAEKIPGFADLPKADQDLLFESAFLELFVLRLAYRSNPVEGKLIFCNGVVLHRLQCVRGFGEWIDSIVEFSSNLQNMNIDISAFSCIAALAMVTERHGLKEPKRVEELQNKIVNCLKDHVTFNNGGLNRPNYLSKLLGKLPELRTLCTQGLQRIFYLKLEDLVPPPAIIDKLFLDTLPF

C=CCc1c(N(C)c2ccc(C(=O)O)cc2)nc(-c2ccccc2)nc1C(F)(F)F [Example 3, 4-((5-allyl-2-phenyl-6-(trifluoromethyl)pyrimidin-4-yl)(methyl)amino)benzoic acid]
activation of Nurr1GAL4:RXRαVP16 heterodimer chimeras [1]: strongly activated
activation of RXRαGAL4 homodimer chimeras [2]: failed to activate
activation of PPARγGAL4:RXRαVP16 chimeras [3]: failed to activate
activation of RXRγGAL4:RXRαVP16 chimeras [4]: failed to activate
activation of VDRGAL4:RXRαVP16 chimeras [5]: failed to activate
noradrenaline levels ([6]; IP 10 mg/kg): remained unaffected
noradrenaline levels ([6]; wild type C57/BL6 mice, single IP 20 mg/kg): did not increase
decrease of floating time [7]: 61.48%
increase of swimming time [7]: 31.7%
remaining SN axonal terminals in the striatum ([8]; 10 mg/kg IP every 12 hours): doubling
increase of TH(+) midbrain neuron survival ([8]; 10 mg/kg IP every 12 hours for 6 days, stereology): 31%
improvement of motor coordination (accelerating rotarod) ([8]; 10 mg/kg IP every 12 hours for 6 days, vs vehicle): > 100%
neuroprotection with once-a-day injection regimen ([8]; 20 mg/kg once a day): ineffective
increase in number of surviving neuronal bodies (SNpc) ([8]; C57/BL6, IP 10 mg/kg every 12 hours for 8 days): 33.5%
increase of neurite branching [9]: 650%
increase of neurite length [9]: 83%
increase of neurite number [9]: 38%
